Converted amounts (≈) assume the structure as drawn.
Assays:
[1] = Aqueous solubility of compound at pH 6.5; type: physicochemical; settings: buffer
[2] = Aqueous solubility of compound at pH 1; type: physicochemical; settings: buffer
[3] = Permeability of compound at pH 5.5 by PAMPA assay; type: ADME; settings: for Papp: read-out: permeability
[4] = Cmax in C57BL6 mouse at 30 mg/kg, po; type: ADME, organism-based; set-up: route oral, dose 30 mg/kg; settings: in vivo
[5] = Permeability of compound at pH 7.4 by PAMPA assay; type: ADME; settings: for Papp: read-out: permeability
[6] = AUC in C57BL6 mouse at 30 mg/kg, po; type: ADME, organism-based; set-up: dose 30 mg/kg; settings: in vivo
[7] = Oral bioavailability in C57BL6 mouse at 30 mg/kg; type: ADME, organism-based; settings: in vivo
[8] = Aqueous solubility of compound at pH 7.4; type: physicochemical; settings: buffer

| Compound | solubility [1] [mg/mL] | solubility [2] [mg/mL] | permeability [3] | Cmax [4] [µM] | permeability [5] | AUC [6] [µM·h] | bioavailability [7] [%] | Papp [3] [nm/s] | Papp [5] [nm/s] | solubility [8] [mg/mL] |
| --- | --- | --- | --- | --- | --- | --- | --- | --- | --- | --- |
| COc1ccc(NC(=O)C2=C(c3ccc(C)cc3)C[C@](c3ccc(OCCCC(F)(F)F)cc3)(C(F)(F)F)NC2=O)cc1 | < 0.001 | < 0.001 | Nd(Insoluble) | 0.16 | Nd(Insoluble) | 1.1 | 15 | – | – | – |
| Cc1ccc(C2=C(c3nnn[nH]3)C(=O)N[C@@](c3ccc(OCCCCCC(F)(F)F)cc3)(C(F)(F)F)C2)cc1 | 0.332 (≈ 600 µM) | 0.001 (≈ 1.81 µM) | – | 4.3 | – | 22 | 88 | 466 | 341 | 1.13 (≈ 2050 µM) |
| Cc1ccc(C2=C(c3nnn[nH]3)C(=O)N[C@@](c3ccc(OCCCC(F)(F)F)cc3)(C(F)(F)F)C2)cc1 [BMS-963272] | 1.18 (≈ 2240 µM) | 0.011 (≈ 20.9 µM) | – | 11 | – | 93 | 50 | 479 | 179 | > 2.45 |
